Key:
CaSR [1] = target: T1, CaSR (Homo sapiens, UniProt P41180); conditions: patients; cited from earlier work
T1 sequence (P41180 20-536 limits assumed): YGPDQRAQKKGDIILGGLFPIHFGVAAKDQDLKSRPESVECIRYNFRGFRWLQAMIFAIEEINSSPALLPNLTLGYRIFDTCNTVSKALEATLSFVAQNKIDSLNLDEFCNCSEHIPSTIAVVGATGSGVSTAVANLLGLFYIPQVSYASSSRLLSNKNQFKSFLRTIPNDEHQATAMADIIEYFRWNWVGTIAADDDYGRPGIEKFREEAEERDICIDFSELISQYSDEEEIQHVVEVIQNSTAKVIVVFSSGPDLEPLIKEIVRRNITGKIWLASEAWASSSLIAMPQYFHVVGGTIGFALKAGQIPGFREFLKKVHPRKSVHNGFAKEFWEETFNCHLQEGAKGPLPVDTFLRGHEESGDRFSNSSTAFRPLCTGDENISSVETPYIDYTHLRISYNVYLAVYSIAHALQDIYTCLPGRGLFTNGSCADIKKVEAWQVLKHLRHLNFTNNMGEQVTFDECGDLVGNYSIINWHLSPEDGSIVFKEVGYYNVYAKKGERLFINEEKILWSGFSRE

[2] = test system: human parathyroid adenoma cells; experiment: PTH secretion from freshly isolated parathyroid adenoma cells; type: cell-based; conditions: increasing concentrations of Ca^2+, 30 min at 37°C; normalized to vehicle in 0.5 mM Ca^2+; representative of five independent experiments
CaSR [3] = target: T1, CaSR; experiment: cAMP accumulation assay in HEK-CaSR cells; type: cell-based; conditions: 3 mM Ca^2+; GPR64ΔNTF-transfected HEK-CaSR cells (Fig. 7C)
CaSR [4] = target: T1, CaSR; experiment: Intracellular calcium mobilization assay in HEK-CaSR cells; type: cell-based; conditions: for Maximal response of Ca^2+ (intracellular Ca^2+): normalized to 7.49 mM Ca^2+ + vehicle in pcDNA3.1 cells
[5] = full-length GPR64-transfected HEK-CaSR cells, vehicle, mean ± SE

Hill slope of Ca^2+ (intracellular Ca^2+) (CaSR [4]; [5]) | pEC50 of Ca^2+ (intracellular Ca^2+) (CaSR [4]; [5]) | Maximal response of Ca^2+ (intracellular Ca^2+) (CaSR [4]; [5]) [%] | Maximal response of Ca^2+ (intracellular Ca^2+) (CaSR [4]; pcDNA3.1-transfected HEK-CaSR cells, vehicle, mean ± SE) [%] | Structure (SMILES) | Serum Ca^2+ normalization (in words) (CaSR [1]) | PTH secretion (in words) [2] | cAMP level with Ca^2+ (in words) (CaSR [3]) | Intracellular Ca^2+ levels (in words) (CaSR [4]; vehicle-treated pcDNA3.1-transfected HEK-CaSR cells)
 |  |  |  | C[C@@H](NCCCc1cccc(C(F)(F)F)c1)c1cccc2ccccc12 [cinacalcet] | normalize the serum Ca^2+ in a significant percentage of patients |  |  | 
2.915 ± 0.159 | 3.566 ± 0.010 | 101.70 ± 0.762 | 101.5 ± 1.177 | [Ca+2].[Cl-].[Cl-] [Ca^2+, calcium chloride] |  | suppressed PTH secretion in a dose-dependent manner | reduced this effect, the cAMP level was still higher than that of cells transfected with empty vector in normocalcemic conditions | elevated the intracellular Ca^2+ levels in a concentration-dependent manner
